Reference: patent US20100144779A1, “Marine Alkalod Makaluvamines and Derivatives Thereof” (THE UAB RESEARCH FOUNDATION, priority 2007, published 2010)
“Also recorded” adds a separate entry of the source.

Legend:
HCT-116 = assay: XTT cytotoxicity assay; format: cell-based, human; details: average ± standard deviation of 2-4 independent assays, read-out: Inhibition of Cancer Cell Proliferation (IC50) HCT-116
Method: (§1) In initial experiments, compounds 4a-g and 7c-g were evaluated for their cytotoxicity against human breast cancer cell lines MCF-7 and MDA-MB-468 and human colon cancer cell line HCT-116. The makaluvamine compounds provided in Table 2 were also evaluated for their cytotoxicity against human breast cancer cell lines MCF-7. Compound nos. 8 and 27-33 were not evaluated in this experiment. Cells were obtained from ATCC (Manassas, Va.). For each derivative the IC50 value was determined using data generated from 2-4 independent tetrazolium-based (XTT) cytotoxicity assays (R & D Systems Inc., Minneapolis, Minn.) according to the manufacturer's instructions. […] MCF-7, MDA-MD-468 and HCT-116 cells were grown at 37 degrees C. in a humidified atmosphere with complete growth media supplemented with fetal bovine serum. Growth media was changed 2-3 times per week as required.

MCF-7 = assay: XTT cytotoxicity assay; format: cell-based, human; details: XTT; average ± standard deviation of 2-4 independent assays; read-out: Inhibition of Cancer Cell Proliferation (IC50) MCF-7
Method: as §1

MDA-MB-468 = assay: XTT cytotoxicity assay; format: cell-based, human; details: average ± standard deviation of 2-4 independent assays, read-out: Inhibition of Cancer Cell Proliferation (IC50) MDA-MB-468
Method: as §1

topoisomerase II = target: T1, topoisomerase II (Homo sapiens, UniProt P11388); assay: Topoisomerase II drug screening kit (relaxation of plasmid DNA); format: biochemical; parameters: key to Topoisomerase II Inhibition: — none; + low; ++ moderate; +++ strong; details: for Topoisomerase II Inhibition: 100 μM drug compound, topoisomerase II (4U), 500 ng plasmid DNA; for inhibition of topoisomerase II catalytic activity (in words): 100 μM makaluvamine derivative
T1 construct: purchased TopoGEN, Inc., Port Orange, Fla
Excerpt: In order to determine the effect of the makaluvamine derivatives of the present disclosure, the synthesized makaluvamine derivatives were screened for their ability to inhibit topoisomerase II activity in vitro. Topoisomerase II functions by generating a double-stranded DNA break followed by resealing of the break. Topoisomerase II inhibitors interfere with the breakage-rejoining reaction thereby trapping the enzyme in a cleavage complex. In order to determine if the disclosed makaluvamine derivatives inhibited topoisomerase II activity, nine of the derivatives were tested for topoisomerase II inhibitory activity using a topoisomerase-II drug screening kit (TopoGEN, Inc., Port Orange, Fla.) according to the manufacturer's instructions. The screening kit uses a supercoiled plasmid DNA substrate (pRYG) which contains one topoisomerase II cleavage/recognition site. […] Relaxed DNA was separated using non-ethidium bromide (EtBr) agarose gels, then stained with EtBr and quantified using Kodak Gel Logic Imaging System and Molecular Imaging software (Eastman Kodak Co., Rochester, N.Y.). Inhibition of relaxation of plasmid DNA or catalytic activity was reported as; − none, + low, ++ moderate, or +++ strong.

MCF7 cells = assay: MTT growth inhibition assay; format: cell-based, human; details: Table 5, MTT, 72 hr; for IC50: read-out: Growth inhibitory activity (IC50) in MCF7 cells
Method: The cell lines were obtained from the American Type Culture Collection (Rockville, Md.) and were grown as follows: MCF-7 (p53 wt) breast cancer cells were grown in DMEM media containing 1 mM non-essential amino acids, Earle's BSS, 1 mM Na pyruvate, and 10 mg/L bovine insulin.
All media contained 10% FBS and 1% penicillin/streptomycin unless otherwise specified. The effects of disclosed compounds on human cancer cell growth, expressed as the percentage of cell survival, were determined by the MTT [3-(4,5-Dimethyl-2-thiazolyl)-2,5-diphenyl-2H-tetrazolium bromide] assay. Cells were grown in 96-well plates and exposed to the test compounds (0, 0.01, 0.1, 1, 10, 100 μM) for 72 hr followed by addition of 10 μL MTT solution (5 mg/mL; Sigma; St. Louis, Mo.) to each well. The plates were incubated for 2-4 hr at 37° C. The supernatant was then removed and formazan crystals were dissolved with 100 μL of DMSO. The absorbance at 570 nm was recorded with an OPTImax microplate reader (Molecular Devices; Sunnyvale, Calif.). The cell survival percentages were calculated by dividing the mean OD of compound containing wells by that of DMSO-control wells. Three separate experiments were accomplished to determine the IC50.

MDM2 = assay: Protein expression, Western blot in MCF-7 cells; format: cell-based, human; details: 1 μM, 6 h (FIG. 4A)
Method: (§2) In FIG. 4A, MCF-7 cells were exposed to 1 μM concentration of the indicated compounds for 6 hours. Western blots were probed with antibodies specific for the proteins indicated. Numbers below each lane show densitometry readings for each lane as compared to control. […] Western blots were probed with antibodies specific for the proteins indicated.
(§3) To determine the disclosed compounds effect on protein expression in human breast cancer cells, cultured MCF-7 cells were exposed to various concentrations of the test compounds for 6 h (FIG. 4A) or 24 h (FIG. 4B). Cell lysates were fractionated with identical amounts of protein by SDS-PAGE and transferred to Bio-Rad trans-Blot nitrocellulose membranes (Bio-Rad Laboratories, Hercules, Calif.). The nitrocellulose membrane was incubated in blocking buffer (Tris-buffered saline containing 0.1% Tween 20 and 5% nonfat milk) for 1 h at room temperature, then with the appropriate primary antibody overnight at 4° C. or 2 h at room temperature with gentle shaking. Finally, the membrane was washed three times with the washing buffer (Tris-buffered saline containing 0.1% Tween 20) for 15 min, incubated with goat anti mouse/rabbit IgG-horseradish peroxidase-conjugated antibody (Bio-Rad) for 1 h at room temperature, and washed again (in triplicate). The protein of interest was detected by enhanced chemiluminescence reagents from PerkinElmer LAS, Inc (Boston, Mass.).

p21 = assay: Protein expression, Western blot in MCF-7 cells; format: cell-based, human; details: 1 μM, 6 h (FIG. 4A)
Method: as §2, §3

p53 = assay: Protein expression, Western blot in MCF-7 cells; format: cell-based, human; details: 1 μM, 6 h (FIG. 4A)
Method: as §2, §3

T1 sequence (P11388 whole entry): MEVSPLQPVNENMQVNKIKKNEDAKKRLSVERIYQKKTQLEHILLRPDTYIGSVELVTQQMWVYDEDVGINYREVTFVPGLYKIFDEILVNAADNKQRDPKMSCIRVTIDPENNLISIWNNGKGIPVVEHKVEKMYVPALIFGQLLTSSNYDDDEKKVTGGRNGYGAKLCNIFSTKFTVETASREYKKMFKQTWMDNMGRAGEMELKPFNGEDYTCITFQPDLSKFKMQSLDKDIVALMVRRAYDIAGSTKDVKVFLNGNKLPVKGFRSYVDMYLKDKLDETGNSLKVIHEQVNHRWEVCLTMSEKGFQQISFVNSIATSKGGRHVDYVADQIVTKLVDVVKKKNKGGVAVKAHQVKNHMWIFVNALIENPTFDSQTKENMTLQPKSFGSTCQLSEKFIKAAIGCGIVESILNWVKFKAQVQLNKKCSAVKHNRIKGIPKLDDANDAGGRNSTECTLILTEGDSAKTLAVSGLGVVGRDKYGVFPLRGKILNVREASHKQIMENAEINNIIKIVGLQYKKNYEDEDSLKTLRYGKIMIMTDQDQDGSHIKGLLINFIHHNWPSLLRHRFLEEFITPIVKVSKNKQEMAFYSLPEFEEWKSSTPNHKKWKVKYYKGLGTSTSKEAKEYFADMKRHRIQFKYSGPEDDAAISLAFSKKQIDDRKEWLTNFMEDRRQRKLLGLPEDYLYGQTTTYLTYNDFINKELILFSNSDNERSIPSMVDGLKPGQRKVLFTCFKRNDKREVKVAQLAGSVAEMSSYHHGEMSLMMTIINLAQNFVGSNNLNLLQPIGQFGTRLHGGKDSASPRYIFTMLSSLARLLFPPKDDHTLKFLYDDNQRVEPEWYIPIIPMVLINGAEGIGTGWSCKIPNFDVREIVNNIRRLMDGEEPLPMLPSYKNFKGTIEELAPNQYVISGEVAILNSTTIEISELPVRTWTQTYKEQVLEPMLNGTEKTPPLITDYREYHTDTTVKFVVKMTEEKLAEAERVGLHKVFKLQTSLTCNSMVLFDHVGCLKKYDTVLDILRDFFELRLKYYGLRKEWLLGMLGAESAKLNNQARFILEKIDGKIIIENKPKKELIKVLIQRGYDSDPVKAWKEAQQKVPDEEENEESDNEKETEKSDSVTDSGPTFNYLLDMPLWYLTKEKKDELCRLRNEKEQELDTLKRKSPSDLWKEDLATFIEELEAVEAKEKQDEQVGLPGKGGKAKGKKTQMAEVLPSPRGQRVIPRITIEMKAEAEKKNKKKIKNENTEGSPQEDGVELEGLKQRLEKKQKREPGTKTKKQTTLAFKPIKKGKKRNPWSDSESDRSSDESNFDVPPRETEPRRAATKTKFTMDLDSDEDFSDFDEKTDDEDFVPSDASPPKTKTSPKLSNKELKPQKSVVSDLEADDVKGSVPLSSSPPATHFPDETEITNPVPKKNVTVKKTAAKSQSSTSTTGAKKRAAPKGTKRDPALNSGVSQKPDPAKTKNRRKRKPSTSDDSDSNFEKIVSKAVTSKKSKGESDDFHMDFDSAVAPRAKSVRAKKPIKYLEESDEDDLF

SMILES	IC50 (HCT-116) [µM]	IC50 (MCF-7) [µM]	IC50 (MDA-MB-468) [µM]	Topoisomerase II Inhibition (topoisomerase II)	inhibition of topoisomerase II catalytic activity (in words) (topoisomerase II)	Growth inhibitory activity (IC50) in MCF7 cells (MCF7 cells)	IC50 (MCF7 cells) [µM]	expression of MDM2 (MDM2)	expression of p21 (p21)	expression of p53 (p53)
O=C1C(NCCc2cc(Br)c(O)c(Br)c2)=CC2=NCCc3c[nH]c1c32 [Compound 4f]	14.4 ± 1.2	13.2 ± 3.1	4.5 ± 0.8	+++	comparable to etoposide and m-AMSA; also recorded: strongest inhibition	μM range	2.72	increased the expression	increased the expression	increased the expression
Cc1ccc(S(=O)(=O)n2cc3c4c2C(=O)C(NCc2ccccc2)=CC4=NCC3)cc1 [Compound 7c]	2.7 ± 1.5	1.8 ± 0.2	1 ± 0.01	+++	comparable to etoposide and m-AMSA; also recorded: strongest inhibition	μM range	1.21	inhibited the expression	decreased the expression	increased the expression
COc1cc(NS(C)(=O)=O)ccc1Nc1c2ccccc2nc2ccccc12 [m-AMSA, reference compound]	0.7	21.7	8.5	++						
O=C1C(NCCc2c[nH]c3ccccc23)=CC2=NCCc3c[nH]c1c32 [Compound 4g]	5.2 ± 0.8	1.6 ± 0.2	0.4 ± 0.01	—						
CCNC1=CC2=NCCc3c[nH]c(c32)C1=O [Compound 4b]	3.6 ± 0.7	1.3 ± 0.3	0.4 ± 0.03	—						
